Assay results as given in patent publication US20220267331A1, “DOPAMINE-B-HYDROXYLASE INHIBITORS” (BIAL - PORTELA & CA, S.A., priority 2019, published 2022).

Biological target: T1, DβH (Homo sapiens, UniProt P09172)
T1 construct: 125 μL of plasma (or saline for blank reaction or standard curve); tissue Instituto Português do Sangue Transplantação, Centro Sangue Transplantação, Porto, Portugal; host or cells: human plasma from healthy donors
T1 sequence (P09172 40-617 limits assumed): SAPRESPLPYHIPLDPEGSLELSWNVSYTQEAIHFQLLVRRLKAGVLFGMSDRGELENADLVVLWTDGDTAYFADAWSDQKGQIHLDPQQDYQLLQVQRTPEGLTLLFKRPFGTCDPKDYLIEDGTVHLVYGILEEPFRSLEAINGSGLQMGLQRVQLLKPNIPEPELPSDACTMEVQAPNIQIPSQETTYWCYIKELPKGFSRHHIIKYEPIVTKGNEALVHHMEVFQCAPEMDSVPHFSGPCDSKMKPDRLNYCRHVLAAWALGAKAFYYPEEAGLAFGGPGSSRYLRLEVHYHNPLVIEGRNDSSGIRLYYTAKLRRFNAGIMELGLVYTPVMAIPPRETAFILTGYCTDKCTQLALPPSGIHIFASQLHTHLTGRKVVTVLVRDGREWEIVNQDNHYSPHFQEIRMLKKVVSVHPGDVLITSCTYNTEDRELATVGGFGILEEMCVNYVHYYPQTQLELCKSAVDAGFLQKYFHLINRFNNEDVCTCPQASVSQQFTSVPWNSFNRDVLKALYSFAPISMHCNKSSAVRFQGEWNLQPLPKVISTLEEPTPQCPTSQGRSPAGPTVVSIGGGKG
Experiment: Dopamine-β-hydroxylase inhibition assay in human plasma
Format: biochemical
Details: for remaining activity at 0.01 µM: DβH activity in human plasma at 0.01 μM inhibitor; for remaining activity at 0.1 µM: DβH activity in human plasma at 0.1 μM inhibitor; for IC50: human plasma, curve fitting of 6 concentrations (100 nM to 0.3 nM)
Experimental: The ability of a compound to inhibit DβH activity may be assessed in human plasma using the following assay.
Dopamine beta hydroxylase activity in human plasma was measured by the method of Nagatsu and Udenfriend (Nagatsu, T. and Udenfriend, S. “Photometric assay of dopamine-p-hydroxylase activity in human blood.” Clin. Chem. 18(9) 980-983, 1972) with minor modifications. Catalase, N-ethylmaleimide, tyramine, disodium fumarate, pargyline, sodium acetate, ascorbic acid, copper sulfate and octopamine were obtained from Sigma Chemical Co., St. Louis, Mo. 63178. Human plasma samples were obtained from healthy donors (Instituto Português do Sangue Transplantação, Centro Sangue Transplantação, Porto, Portugal). From date of collection, plasma was stored at −80° C. until use. Test compounds were initially prepared in dimethyl sulfoxide at a concentration of 10 mM and diluted in dimethyl sulfoxide to the required concentrations. Test compounds were further diluted in ultrapure water to a concentration 20-fold to that of the final concentration to be tested. Final concentrations of test compounds were 10 and 100 nM. The various reagents used to make up the incubation buffer were premixed and consisted of the following components: sodium acetate buffer (1 M, pH 5.0, 18 mL), sodium fumarate (0.2 M, 4.5 mL), ascorbic acid (0.2 M, 4.5 ml, freshly prepared), pargyline (20 mM, freshly prepared, 4.5 mL), N-ethylmaleimide (0.2 M, 4.5 mL), catalase (10 000 U/mL, 9 mL), copper sulfate (20 μM, 4.5 mL) and 4.5 ultrapure water. The standard incubation mixture (total volume, 950 μL) contained: 50 μL of compound or vehicle (dimethyl sulfoxide 2%); 700 μL of incubation buffer; 125 μL of plasma (or saline for blank reaction or standard curve); 75 μL of saline. The reaction mixture was placed in water bath, shaking at 37° C. and pre-incubated for 10 minutes. Tyramine (0.5 M) was added and incubation proceeded for 45 minutes. The reaction contents were exposed to air. A sample of enzyme preparation (with 125 μL of plasma) that had been added perchloric acid 2 M at the end of the pre-incubation period was used as blank. A blank for each of the tested compounds was used. For octopamine standard curve, perchloric acid 2 M was replaced by increasing concentrations of octopamine prepared in perchloric acid 2 M (0.5, 1, 2.5, 5, 7.5, 10, 15, 20 μg/mL, final concentration). The incubation was stopped by adding 200 μL of 2 M molar perchloric acid, and the mixture was centrifuged at 9000 g for 5 min. The supernatant fluid (800 μL) was transferred to a column (SPE cartridge ISOLUTE SCX-3, 100 mg) and centrifuged at 150 g for 2 min. The column was washed two more times with 0.5 ml of ultrapure water by centrifuging at 150 g for 2 min. The adsorbed octopamine was eluted twice with 0.3 mL of 4 M ammonium hydroxide by centrifuging at 150 g for 2 min. Octopamine in the eluate was then converted to p-hydroxybenzaldehyde by adding 200 μL of sodium periodate (2%) and incubating for 6 min. Excess periodate was than reduced by adding 200 μL of sodium metabisulfite (10%). Absorbance was measured at […] in a 96-well plate by use of a SpectraMAX plus 384 (Molecular Devices) with software SOFTmax® PRO Software 5.3 spectrophotometer. Absorbance was linear with octopamine concentration from 0.5 to 20 μg/mL. Dopamine beta hydroxylase activity is determined as nmol of octopamine formed/mL of plasma/hour and effect of compounds is presented as % control. Results are reported in the table below as activity in % of control at the inhibitor concentration tested.
IC50 values of selected compounds were calculated based on curve fitting of results of 6 different compound concentrations (100 nM to 0.3 nM). IC50 data are reported in nM concentration.

| SMILES | remaining activity at 0.01 µM | remaining activity at 0.1 µM | IC50 |
| --- | --- | --- | --- |
| Fc1ccc(Cl)cc1[C@]12C[C@H]1c1c(CCCNC3CCOCC3)[nH]c(=S)n1C2 [Example 17, (5aS,6aR)-5a-(5-chloro-2-fluorophenyl)-1-(3-((tetrahydro-2H-pyran-4-yl)amino)propyl)-5,5a,6,6a-tetrahydrocyclopropa[3,4]pyrrolo[1,2-c]imidazole-3(2H)-thione] | 41.8% | 3.9% | 9.9 nM |
| Fc1ccc(Cl)c(F)c1[C@]12C[C@H]1c1c(CCCNC3CCOCC3)[nH]c(=S)n1C2 [Example 18, (5aS,6aR)-5a-(3-chloro-2,6-difluorophenyl)-1-(3-((tetrahydro-2H-pyran-4-yl)amino)propyl)-5,5a,6,6a-tetrahydrocyclopropa[3,4]pyrrolo[1,2-c]imidazole-3(2H)-thione] | 20.1% | 1% | 4 nM |
| Fc1ccc(Cl)c(F)c1[C@]12C[C@H]1c1c(CCCN3CCCC3)[nH]c(=S)n1C2 [Example 19, (5aS,6aR)-5a-(3-chloro-2,6-difluorophenyl)-1-(3-(pyrrolidin-1-yl)propyl)-5,5a,6,6a-tetrahydrocyclopropa[3,4]pyrrolo[1,2-c]imidazole-3(2H)-thione] | 17% | 1% | 3 nM |
| Fc1ccc(Cl)cc1[C@]12C[C@H]1c1c(CCCN3CCCC3)[nH]c(=S)n1C2 [Example 20, (5aS,6aR)-5a-(5-chloro-2-fluorophenyl)-1-(3-(pyrrolidin-1-yl)propyl)-5,5a,6,6a-tetrahydrocyclopropa[3,4]pyrrolo[1,2-c]imidazole-3(2H)-thione] | 53.4% | 9.1% | 9.8 nM |
| Fc1ccc(Cl)cc1[C@]12C[C@H]1c1c(CCCN[C@H]3CCCOC3)[nH]c(=S)n1C2 [Example 21, (5aS,6aR)-5a-(5-chloro-2-fluorophenyl)-1-(3-(((S)-tetrahydro-2H-pyran-3-yl)amino)propyl)-5,5a,6,6a-tetrahydrocyclopropa[3,4]pyrrolo[1,2-c]imidazole-3(2H)-thione] | 45.3% | 8.5% | – |
| Fc1ccc(Cl)c(F)c1[C@]12C[C@H]1c1c(CCCN[C@H]3CCCOC3)[nH]c(=S)n1C2 [Example 22, (5aS,6aR)-5a-(3-chloro-2,6-difluorophenyl)-1-(3-(((S)-tetrahydro-2H-pyran-3-yl)amino)propyl)-5,5a,6,6a-tetrahydrocyclopropa[3,4]pyrrolo[1,2-c]imidazole-3(2H)-thione] | 23.5% | 3.5% | 4 nM |
